Experiment: xn = mol fraction of the nth substance listed
Conditions: 101.3 kPa, Liquid, Pycnometric method

CCCNCCC [dipropylamine] + COCCO
mass density [kg/m3]
Conditions | 291.15 K | 293.15 K | 298.15 K | 303.15 K | 308.15 K
x2 = 0 | 738.47 | 737.2 | 732.56 | 728.2 | 723.64
x2 = 0.0501 | 746.83 | 745.26 | 740.37 | 735.86 | 731.07
x2 = 0.1 | 754.98 | 753.42 | 748.52 | 743.91 | 739.04
x2 = 0.1502 | 763.4 | 761.9 | 756.9 | 752.27 | 747.36
x2 = 0.2001 | 772.06 | 770.51 | 765.5 | 760.85 | 755.94
x2 = 0.2508 | 781.14 | 779.61 | 774.59 | 769.92 | 764.98
x2 = 0.2999 | 790.26 | 788.66 | 783.68 | 778.97 | 774.07
x2 = 0.3502 | 799.92 | 798.35 | 793.28 | 788.57 | 783.65
x2 = 0.4 | 809.92 | 808.21 | 803.2 | 798.45 | 793.51
x2 = 0.45 | 820.34 | 818.67 | 813.61 | 808.82 | 803.85
x2 = 0.4999 | 831.06 | 829.4 | 824.3 | 819.53 | 814.5
x2 = 0.5507 | 842.47 | 840.75 | 835.6 | 830.8 | 825.78
x2 = 0.5982 | 853.45 | 851.69 | 846.6 | 841.77 | 836.69
x2 = 0.6502 | 866.02 | 864.26 | 859.11 | 854.24 | 849.17
x2 = 0.6999 | 878.41 | 876.59 | 871.47 | 866.58 | 861.5
x2 = 0.7489 | 891.21 | 889.34 | 884.21 | 879.3 | 874.18
x2 = 0.8015 | 905.66 | 903.7 | 898.54 | 893.64 | 888.51
x2 = 0.8496 | 919.22 | 917.32 | 912.15 | 907.23 | 902.13
x2 = 0.8997 | 934.42 | 932.35 | 927.21 | 922.3 | 917.11
x2 = 0.9497 | 950.19 | 948.22 | 943.1 | 938.3 | 933.24
